The nature of series [1]: Steady-state plasma pharmacokinetics of intravenous polymyxin B in adult patients (LC-MS/MS, ADAPT 5 compartment fitting). It counts as in vivo. To be noted: human, one-compartment model, 13 adult patients, i.v. every 12 h, median, read-out: best-fit elimination half-life (median) (converted). On the procedure: This was a prospective observational study. The study was conducted from March 2016 to March 2018 at two major teaching hospitals in Singapore: Tan Tock Seng Hospital (TTSH) and Singapore General Hospital (SGH). Adult patients (21 years of age or greater) who received intravenous polymyxin B (USP) for the treatment of suspected or confirmed bacterial infections were enrolled. The dose, dosing interval, and infusion duration of polymyxin B administration were as prescribed by the respective attending medical teams. Patients who were pregnant, on dialysis, with burns or spinal cord injury were excluded.
For each subject, four blood samples were obtained serially over one dosing interval at steady state (presumably after the third day of therapy). Since the dosing regimens were not standardized, a sampling scheme spanning the samples over the dosing interval was adopted to accommodate different scenarios. Sample 1 was obtained within 0.5 h prior to the next scheduled dose, sample 2 was obtained 0.5–1 h after the end of drug administration, sample 3 was obtained 3–8 h after the end of drug administration, and sample 4 was obtained within 4 h prior to the next scheduled dose. All samples were specifically timed in relation to drug administration. […] Polymyxin B concentrations in plasma samples were determined using a validated liquid chromatography tandem mass spectrometry method. […]

For series [2] the following is noted: 3 population PK studies, no demographic variables linked to total clearance; cited from earlier work. The source says:
In contrast, body weight was linked to total clearance in a study using a two-compartment model. Finally, creatinine clearance had been linked to total clearance of polymyxin B in cystic fibrosis patients. || There were several limitations in our study. Only a limited number of (primarily male) patients were enrolled with standard clinical dosing and dosing frequency. The robustness of our conclusion would be enhanced with a larger sample size and a wider range of dosing regimens. Also, the observed AUC values for comparison were based only 4 data points over a single dosing interval.

By half-life is commonly meant the time needed for the level to fall by half in the phase considered.

Values joined by “and” are separate entries in the source; they are usually repeats but may differ in a detail not shown here. Equal values may be shown once. Positions of bridges follow the written chain, without caps; N, C: chain ends. Non-standard residues stand in square brackets, D forms with d. Residues, ends and D or L forms follow the SMILES beside them. *: point of attachment. X1 = CC[C@H](C)CCCCC(=O)*; Dab = NCC[C@H](N)C(=O)O

As to `CC[C@H](C)CCCCC(=O)N[C@@H](CCN)C(=O)N[C@H](C(=O)N[C@@H](CCN)C(=O)N[C@H]1CCNC(=O)[C@H]([C@@H](C)O)NC(=O)[C@H](CCN)NC(=O)[C@H](CCN)NC(=O)[C@H](CC(C)C)NC(=O)[C@@H](Cc2ccccc2)NC(=O)[C@H](CCN)NC1=O)[C@@H](C)O` [polymyxin B] (X1-[Dab]T[Dab][Dab][Dab][dF]L[Dab][Dab]T; lactam 4-C), the half-life in series [1] is 408 min. The “estimates of clearance (total clearance) in population pharmacokinetic studies” value in series [2] is 2.4 L/h and 2.5 L/h and 2.6 L/h.

The record behind these values is paper PMC7698783, “Performance of Population Pharmacokinetic Models in Predicting Polymyxin B Exposures” (Microorganisms, 2020).
